From patent US8415476B2, “Indazole having analgesic activity” (Aziende Chimiche Riunite Angelini Francesco A.C.R.A.F. …, priority 2003, dated 2013)

How the values were obtained:
[1] = system: mechanical hyperalgesia in rats with diabetes induced by streptozotocin; test: Mechanical hyperalgesia in rats with diabetes induced by streptozotocin; assay type: in vivo, rat; conditions: male CD rats, streptozotocin 80 mg/kg i.p. diabetic neuropathy, dose 10^-5 mol/kg, vehicle 112 ± 4.0, normal animals 240±8.7 g
Method: The pain threshold of normal animals of equal weight/age=155±2.1 g 2. Mechanical Hyperalgesia in Rats with Diabetes Induced by Streptozotocin
Male CD rats weighing 240-300 g on arrival were used.
Diabetic syndrome was induced by a single intraperitoneal (i.p.) injection of 80 mg/kg of streptozotocin dissolved in sterile physiological solution [Courteix C, Eschalier A, Lavarenne J. Streptozotocin-induced diabetic rats: behavioural evidence for a model of chronic pain. Pain, 1993; 53: 81-88; Bannon A W, Decker M W, Kim Dj, Campbell J E, Arneric S P. ABT-594, a novel cholinergic channel modulator, is efficacious in nerve ligation and diabetic neuropathy models of neuropathic pain. Brain Res. 1998; 801: 158-63].
After at least three weeks following the injection of streptozotocin, rats were selected having a level of glycaemia ≧300 mg/dl and having a response threshold to a mechanical nociceptive stimulus ≦120 g. The glycaemia levels were measured by means of a reflectometer using reactive strips impregnated with glucose oxidase. The pain threshold was measured using an analgesiometer. By applying a gradual increase in pressure on the dorsal zone of the rat's left hind foot, the instrument makes it possible to record the nocifensive response, expressed in grams, corresponding to the moment when the animal retracts its foot.
At 2 h following the treatment, the pain threshold measured in control animals was compared with that measured in animals treated with the product under examination (dose 10^−5 mol/kg).
The control animals were treated with the same vehicle (water) used for administering the products under examination.

[2] = system: mechanical hyperalgesia induced by CFA in the rat; test: Mechanical hyperalgesia induced by CFA in the rat; assay type: in vivo; conditions: male CD rats, dose 10^-5 mol/kg, test 23 hours after injection of CFA, vehicle 121 ± 4.1, normal animals 155±2.1 g
Description: 1. Mechanical Hyperalgesia Induced by CFA in the Rat
Male CD rats weighing 150-200 g on arrival were used. Using an analgesiometer, rats were selected having a response threshold to a mechanical nociceptive stimulus of from 150 to 180 g. By applying a gradual increase in pressure on the dorsal zone of the rat's left hind foot, the instrument makes it possible to record the nocifensive response, expressed in grams, corresponding to the moment when the animal retracts its foot [Randall L O and Semite J J. A method for the measurement of analgesic activity on inflamed tissue. Arch. Int. Pharmacodyn. Ther. 1957; 111: 409-419].
Hyperalgesia was induced by unilateral injection of 150 μl of Complete Freund's Adjuvant (CFA) in the plantar surface of the animal's left hind foot [Andrew D, Greenspan J D. Mechanical and heat sensitization of cutaneous nociceptors after peripheral inflammation in the rat. J Neurophysiol 1999; 82(5): 2649-2656; Hargreaves K, Dubner R, Brown R, Flores C, Joris J. A new and sensitive method for measuring thermal nociception in cutaneous hyperalgesia. Pain 1988; 32: 77-88].
The compounds under examination were tested (dose 10^−5 mol/kg) by carrying out the test 23 hours after injection of CFA.
At 1 h following the treatment, the pain threshold measured in control animals was compared with that measured in animals treated with the product under examination. The control animals were treated with the same vehicle (water) used for administering the products under examination.

CC(C)n1nc(C(=O)NCC2CCN(CCc3ccc(N)cc3)CC2)c2ccccc21.Cl.Cl [AF3R294, N((1-(2-(4-aminophenyl)ethyl)-4-piperidinyl)methyl)-1-(1-methylethyl)-1H-indazole-3-carboxamide dihydrochloride]
Pain threshold (g) 2 h after treatment [1]: 198 ± 18.6 g
Pain threshold (g) 1 h after treatment [2]: 194 ± 22.4 g

Cc1ccc2c(c1)c(C(=O)NCC1CCN(CCc3ccc(O)cc3)CC1)nn2C(C)C.Cl [AF3R296, N((1-(2-(4-hydroxyphenyl)ethyl)-4-piperidinyl)methyl)-5-methyl-1-(1-methylethyl)-1H-indazole-3-carboxamide hydrochloride]
Pain threshold (g) 2 h after treatment [1]: 154 ± 8.7 g
Pain threshold (g) 1 h after treatment [2]: 151 ± 10.7 g

Cl.O=C(NCC1CCN(CCc2ccc([N+](=O)[O-])cc2)CC1)c1n[nH]c2ccccc12 [AF3R298, N((1-(2-(4-nitrophenyl)ethyl)-4-piperidinyl)methyl)-1H-indazole-3-carboxamide hydrochloride]
Pain threshold (g) 2 h after treatment [1]: 170 ± 10.2 g
Pain threshold (g) 1 h after treatment [2]: 174 ± 9.8 g

Cl.Cl.Nc1ccc(CCN2CCC(CNC(=O)c3n[nH]c4ccccc34)CC2)cc1 [AF3R302, N((1-(2-(4-aminophenyl)ethyl)-4-piperidinyl)methyl)-1H-indazole-3-carboxamide dihydrochloride]
Pain threshold (g) 2 h after treatment [1]: 164 ± 10.2 g
Pain threshold (g) 1 h after treatment [2]: 160 ± 10.2 g

CC(C)n1nc(C(=O)NCC2CCN(CCc3ccc([N+](=O)[O-])cc3)CC2)c2ccccc21.O=C(O)C(=O)O [AF3R306, N((1-(2-(4-nitrophenyl)ethyl)-4-piperidinyl)methyl)-1-(1-methylethyl)-1H-indazole-3-carboxamide oxalate]
Pain threshold (g) 2 h after treatment [1]: 184 ± 13.8 g
Pain threshold (g) 1 h after treatment [2]: 186 ± 11.0 g

COc1ccc(CCN2CCC(C(=O)Nc3nn(C)c4ccccc34)CC2)cc1.Cl [AF3R328, N-(1-methyl-1H-indazol-3-yl)-1-(2-(4-methoxyphenyl)ethyl)piperidine-4-carboxamide hydrochloride]
Pain threshold (g) 2 h after treatment [1]: 158 ± 6.2 g
Pain threshold (g) 1 h after treatment [2]: 150 ± 8.7 g
melting point: 137 to 139 °C (dec.)

Cl.Cn1nc(NC(=O)C2CCN(CCc3ccc(O)cc3)CC2)c2ccccc21 [AF3R330]
Pain threshold (g) 2 h after treatment [1]: 171 ± 9.6 g
Pain threshold (g) 1 h after treatment [2]: 161 ± 10.5 g

Cl.Cn1nc(NC(=O)C2CCN(CCc3ccccc3)CC2)c2ccccc21 [AF3R334, N-(1-methyl-1H-indazol-3-yl)-1-(2-phenylethyl)piperidine-4-carboxamide hydrochloride]
Pain threshold (g) 2 h after treatment [1]: 184 ± 10.5 g
Pain threshold (g) 1 h after treatment [2]: 170 ± 11.0 g
melting point: 235 to 237 °C
